# Patent US20230218577A1, “USE OF HEAT SHOCK PROTEIN INHIBITORS FOR THE TREATMENT OF NEURODEVELOPMENTAL DISORDERS” (The Children's Medical Center Corporation, priority 2020, published 2023)
# System: IGF-IRβ, pS6 in wild-type cortical neurons
# Assay: Proteasomal inhibition experiment, Western blot in wild-type cortical neurons
# Type: cell-based, rat
# Conditions: 100 nM bortezomib with 4 μM 17-AGG
# Experimental: Hippocampi and cortexes from 18-day-old rat embryos (Charles River CD1) were isolated under the microscope and collected in Hank's Balanced Salt Solution containing 10 mM MgCl2, 1 mM kynurenic acid, 10 mM HEPES and penicillin/streptomycin. After 5 min dissociation at 37° C. in 30 U/ml of papain, neurons were mechanically triturated and plated in Neurobasal (NB) medium containing B27 supplement, 2 mM L-glutamine, penicillin/streptomycin and primocin (NB/B27). Biochemical analysis was performed on cortical cultures plated at 1×10^6 cells/well onto six-well plates. Immunofluorescent analysis was performed on hippocampal cultures plated at 20×10^3 cells/well onto 96-well plates. All plates were coated with 20 μg/ml poly-D-lysine (PDL).
# Stocks of drugs were freshly diluted in NB media before performing each experiment. The same amount of vehicle was used as vehicle-only control. For dose response curves serial dilutions were freshly made in NB media by a manual multichannel pipette using compound dilution plates.
# Protein extracts were lysed in 1×SDS (22 mM Tris-HCl pH 6.8, 4% Glycerol, 0.8% SDS, 1.6% β-mercaptoethanol, bromphenol blue) sample buffer, heated to 95° C. for 5 min and stored frozen. Before being subjected to discontinuous gel electrophoresis, equal amounts of all protein lysates were verified by Coomassie gel staining. For immunoblotting, equal amounts of protein lysates were subjected to SDS-PAGE, transferred to Immobilon-P Millipore and incubated in LI-COR blocking solution at RT for 2 hrs. Primary and secondary antibodies were diluted in LI-COR blocking solution to the appropriate concentrations. LI-COR IRDye secondary antibodies were used. All images were acquired using the LI-COR Odyssey Classic imager and associated Image Studio Lite analysis software (version 5.2.5). Quantification of protein expression was performed by densitometry scans of immunoblots using LI-COR Odyssey imaging system.
structure (smiles),measurement,value
"CC(C)C[C@H](NC(=O)[C@H](Cc1ccccc1)NC(=O)c1cnccn1)B(O)O [BTZ, bortezomib]",reduction in S6 phosphorylation caused by 17-AGG,prevented
same,reduction of IGF-IRβ levels caused by 17-AGG,prevented
